Results as given in US20070049564A1 (Wyeth, priority 2005, published 2007).
Values after ≈ are worked out from the molar mass of the structure shown. Like-named read-outs stand apart in the source and are kept apart here.

How the values were obtained:
E. coli GC 2236 = test: MIC, broth microdilution; conditions: Escherichia coli
E. coli GC 2233 = test: MIC, broth microdilution; conditions: Escherichia coli
E. coli GC 2234 = test: MIC, broth microdilution; conditions: Escherichia coli
E. coli GC 2272 = test: MIC, broth microdilution; conditions: Escherichia coli
E. coli GC 6465 = test: MIC, broth microdilution; conditions: Escherichia coli
E. coli GC 1073 = test: MIC, broth microdilution; conditions: Escherichia coli
S. aureus GC 1131 = test: MIC, broth microdilution; conditions: Staphylococcus aureus
S. aureus GC 6466 = test: MIC, broth microdilution; conditions: Staphylococcus aureus
S. aureus GC 1079 = test: MIC, broth microdilution; conditions: Staphylococcus aureus
S. aureus GC 4536 = test: MIC, broth microdilution; conditions: Staphylococcus aureus
S. aureus GC 6469 = test: MIC, broth microdilution; conditions: Staphylococcus aureus
S. epidermidis GC 4935 = test: MIC, broth microdilution; conditions: Staphylococcus epidermidis
E. faecalis GC 4555 = test: MIC, broth microdilution; conditions: Enterococcus faecalis
E. faecalis GC 2265 = test: MIC, broth microdilution; conditions: Enterococcus faecalis
E. faecium GC 2243 = test: MIC, broth microdilution; conditions: Enterococcus faecium
S. pneumoniae+ GC 4465 = test: MIC, broth microdilution; conditions: Streptococcus pneumoniae
S. pyogenes GC 4563 = test: MIC, broth microdilution; conditions: Streptococcus pyogenes
c. albicans GC 3066 = test: MIC, broth microdilution
E. coli = test: Range of MIC for E. coli strains; conditions: Escherichia coli
Staph. = test: Range of MIC for Staph. strains, including MRSA; conditions: Staphylococcus aureus, MRSA

- MIC (E. coli GC 2236; GC2236, read-out: MINIMAL INHIBITORY CONCENTRATION MIC, pre-incubated in Mouse Serum): 0.5 µg/mL (≈ 0.62 µM)
- MIC (E. coli GC 2236; GC2236, read-out: MINIMAL INHIBITORY CONCENTRATION MIC, pre-incubated in Water): > 64 µg/mL
- MIC (E. coli GC 2233; GC2233, read-out: MINIMAL INHIBITORY CONCENTRATION MIC, pre-incubated in Mouse Serum): 0.5 µg/mL (≈ 0.62 µM)
- MIC (E. coli GC 2233; GC2233, read-out: MINIMAL INHIBITORY CONCENTRATION MIC, pre-incubated in Water): > 64 µg/mL
- MIC (E. coli GC 2234; GC2234, read-out: MINIMAL INHIBITORY CONCENTRATION MIC, pre-incubated in Mouse Serum): 0.25 µg/mL (≈ 0.31 µM)
- MIC (E. coli GC 2234; GC2234, read-out: MINIMAL INHIBITORY CONCENTRATION MIC, pre-incubated in Water): > 64 µg/mL
- MIC (E. coli GC 2272; GC2272, read-out: MINIMAL INHIBITORY CONCENTRATION MIC, pre-incubated in Mouse Serum): 0.5 µg/mL (≈ 0.62 µM)
- MIC (E. coli GC 2272; GC2272, read-out: MINIMAL INHIBITORY CONCENTRATION MIC, pre-incubated in Water): > 64 µg/mL
- MIC (E. coli GC 6465; GC6465, read-out: MINIMAL INHIBITORY CONCENTRATION MIC, pre-incubated in Mouse Serum): 8 µg/mL (≈ 9.93 µM)
- MIC (E. coli GC 6465; GC6465, read-out: MINIMAL INHIBITORY CONCENTRATION MIC, pre-incubated in Water): > 64 µg/mL
- MIC (E. coli GC 1073; GC1073, read-out: MINIMAL INHIBITORY CONCENTRATION MIC, pre-incubated in Mouse Serum): 0.5 µg/mL (≈ 0.62 µM)
- MIC (E. coli GC 1073; GC1073, read-out: MINIMAL INHIBITORY CONCENTRATION MIC, pre-incubated in Water): > 64 µg/mL
- MIC (S. aureus GC 1131; GC1131, read-out: MINIMAL INHIBITORY CONCENTRATION MIC, pre-incubated in Mouse Serum): 0.5 µg/mL (≈ 0.62 µM)
- MIC (S. aureus GC 1131; GC1131, read-out: MINIMAL INHIBITORY CONCENTRATION MIC, pre-incubated in Water): 32 µg/mL (≈ 39.7 µM)
- MIC (S. aureus GC 6466; GC6466, read-out: MINIMAL INHIBITORY CONCENTRATION MIC, pre-incubated in Mouse Serum): 0.5 µg/mL (≈ 0.62 µM)
- MIC (S. aureus GC 6466; GC6466, read-out: MINIMAL INHIBITORY CONCENTRATION MIC, pre-incubated in Water): 4 µg/mL (≈ 4.96 µM)
- MIC (S. aureus GC 1079; GC1079, read-out: MINIMAL INHIBITORY CONCENTRATION MIC, pre-incubated in Mouse Serum): 2 µg/mL (≈ 2.48 µM)
- MIC (S. aureus GC 1079; GC1079, read-out: MINIMAL INHIBITORY CONCENTRATION MIC, pre-incubated in Water): 64 µg/mL (≈ 79.4 µM)
- MIC (S. aureus GC 4536; GC4536, read-out: MINIMAL INHIBITORY CONCENTRATION MIC, pre-incubated in Mouse Serum): 0.5 µg/mL (≈ 0.62 µM)
- MIC (S. aureus GC 4536; GC4536, read-out: MINIMAL INHIBITORY CONCENTRATION MIC, pre-incubated in Water): 32 µg/mL (≈ 39.7 µM)
- MIC (S. aureus GC 6469; GC6469, read-out: MINIMAL INHIBITORY CONCENTRATION MIC, pre-incubated in Mouse Serum): 4 µg/mL (≈ 4.96 µM)
- MIC (S. aureus GC 6469; GC6469, read-out: MINIMAL INHIBITORY CONCENTRATION MIC, pre-incubated in Water): 64 µg/mL (≈ 79.4 µM)
- MIC (S. epidermidis GC 4935; GC4935, read-out: MINIMAL INHIBITORY CONCENTRATION MIC, pre-incubated in Mouse Serum): 1 µg/mL (≈ 1.24 µM)
- MIC (S. epidermidis GC 4935; GC4935, read-out: MINIMAL INHIBITORY CONCENTRATION MIC, pre-incubated in Water): 32 µg/mL (≈ 39.7 µM)
- MIC (E. faecalis GC 4555; GC4555, read-out: MINIMAL INHIBITORY CONCENTRATION MIC, pre-incubated in Mouse Serum): 0.25 µg/mL (≈ 0.31 µM)
- MIC (E. faecalis GC 4555; GC4555, read-out: MINIMAL INHIBITORY CONCENTRATION MIC, pre-incubated in Water): 64 µg/mL (≈ 79.4 µM)
- MIC (E. faecalis GC 2265; GC2265, read-out: MINIMAL INHIBITORY CONCENTRATION MIC, pre-incubated in Mouse Serum): 2 µg/mL (≈ 2.48 µM)
- MIC (E. faecalis GC 2265; GC2265, read-out: MINIMAL INHIBITORY CONCENTRATION MIC, pre-incubated in Water): 64 µg/mL (≈ 79.4 µM)
- MIC (E. faecium GC 2243; GC2243, read-out: MINIMAL INHIBITORY CONCENTRATION MIC, pre-incubated in Mouse Serum): 0.25 µg/mL (≈ 0.31 µM)
- MIC (E. faecium GC 2243; GC2243, read-out: MINIMAL INHIBITORY CONCENTRATION MIC, pre-incubated in Water): 0.25 µg/mL (≈ 0.31 µM)
- MIC (S. pneumoniae+ GC 4465; read-out: MINIMAL INHIBITORY CONCENTRATION MIC, pre-incubated in Mouse Serum): 2 µg/mL (≈ 2.48 µM)
- MIC (S. pneumoniae+ GC 4465; read-out: MINIMAL INHIBITORY CONCENTRATION MIC, pre-incubated in Water): 0.5 µg/mL (≈ 0.62 µM)
- MIC (S. pyogenes GC 4563; GC4563, read-out: MINIMAL INHIBITORY CONCENTRATION MIC, pre-incubated in Mouse Serum): < 0.06 µg/mL
- MIC (S. pyogenes GC 4563; GC4563, read-out: MINIMAL INHIBITORY CONCENTRATION MIC, pre-incubated in Water): < 0.06 µg/mL
- MIC (c. albicans GC 3066; Candida albicans, GC3066, read-out: MINIMAL INHIBITORY CONCENTRATION MIC): > 64 µg/mL
- MINIMAL INHIBITORY CONCENTRATION MIC (c. albicans GC 3066; pre-incubated in Water): >64 UG/ML
- MIC (E. coli; 20 h, read-out: Range of MIC, E. coli (Mouse Serum)): 0.25 to 1 µg/mL (≈ 0.31 to 1.24 µM)
- MIC (E. coli; read-out: Range of MIC, E. coli (Water)): > 64 µg/mL
- MIC (E. coli; read-out: Range of MIC, E. coli (mouse serum)): 0.25 to 1 µg/mL (≈ 0.31 to 1.24 µM)
- MIC (E. coli; read-out: Range of MIC, E. coli (water)): > 64 µg/mL
- MIC (Staph.; read-out: Range of MIC, Staph (Mouse Serum)): 0.5 to 4 µg/mL (≈ 0.62 to 4.96 µM)
- MIC (Staph.; read-out: Range of MIC, Staph (Water)): 4 to 64 µg/mL (≈ 4.96 to 79.4 µM)
- MIC (Staph.; read-out: Range of MIC, Staph. (mouse serum)): 0.5 to 4 µg/mL (≈ 0.62 to 4.96 µM)
- MIC (Staph.; read-out: Range of MIC, Staph. (water)): 4 to 64 µg/mL (≈ 4.96 to 79.4 µM)
Structure (SMILES): CCCN(CC(=O)Nc1cc(N(C)C)c2c(c1O)C(=O)C1=C(O)[C@]3(O)C(=O)C(C(N)=O)=C(O)[C@@H](N(C)C)[C@@H]3C[C@@H]1C2)C(=O)OCOC(=O)c1ccc(C(C)(C)C)cc1 [Example 28, ({[(2-{[(5aR,6aS,7S,10aS)-9-(aminocarbonyl)-4,7-bis(dimethylamino)-1,8,10a,11-tetrahydroxy-10,12-dioxo-5,5a,6,6a,7,10,10a,12-octahydrotetracen-2-yl]amino}-2-oxoethyl)(propyl)amino]carbonyl}oxy)methyl 4-tert-butylbenzoate]
